Results: article PMC9377006, “Discovery of Desmuramylpeptide NOD2 Agonists with Single-Digit Nanomolar Potency” (ACS Medicinal Chemistry Letters, 2022)

Test system: K562 cancer cells
Assay: PBMC cytotoxicity against K562 cancer cells
Type: cell-based
Experimental: In addition, we also investigated the ability of 40, both alone and in combination with LPS and IFN-γ, to induce direct and nonspecific cytolytic activity of PBMCs against cancer cells. For this purpose, we used a functional cytotoxicity assay based on the coincubation of preactivated PBMCs and fluorescently labeled K562 cancer cells.[33] Among the heterogeneous subpopulations of PBMCs, natural killer (NK) cells and, to a lesser extent, monocytes represent the main effector cell types in this assay. NK cells play an essential role in tumor and viral immunosurveillance, both through direct cytolytic destruction of aberrant cells and by facilitating the recruitment and activation of other immune cells through the secretion of cytokines.[34] In addition to their well-established role in cancer immunotherapy, NK cells thus also provide an attractive target in the development of vaccine adjuvants, particularly when Th1 cellular immune responses are preferred.[35] Other cell populations, however, may contribute to the magnitude of NK cell-mediated responses via cytokine secretion. To account for the contribution of these accessory cells and to more accurately represent in vivo conditions, the entire PBMC population was used instead of isolated NK cells.
Figure 3 2 and 40 synergize with LPS and IFN-γ to induce the cytotoxicity of PBMCs against K562 cancer cells. Following 18 h of stimulation of PBMCs with 2 (1 μM) or 40 (1 μM) in the presence or absence of LPS (1 μg/mL) and IFN-γ (200 U/mL) or the corresponding vehicle (0.1% DMSO; NT), K562 cells were added in a 40:1 effector to target cell ratio. Cytotoxicity was determined after 4 h of coincubation. IL-2 (200 U/mL) was used as the positive control. Data are shown as relative activities to vehicle-treated control (0.1% DMSO) and are the means ± SEMs of duplicates of two independent experiments. Statistical significance was determined by one-way ANOVA followed by Dunnet’s multiple-comparisons test; **, p < 0.01, ***, p < 0.001. […]
4.8 Peripheral blood mononuclear cell cytotoxicity
The PBMC cytotoxicity assays using K562 cells were performed as described previously, with some modifications.2 PBMCs were seeded (400,000 cells/well) in duplicates in 96 -well U-bottom plates and treated with 2 (1 µM) or 40 (1 µM), in the presence or absence of LPS (1 µg/mL) or IFN-γ (200 U/mL), IL-2 (200 U/mL), or the corresponding vehicle (0.1% DMSO) for 18 h. K562 were stained with carboxyfluorescein succinimidyl ester (CFSE, Invitrogen, Carlsbad, CA, USA), washed twice with complete medium, and added (10,000 cells/well) to the pre-treated PBMCs for a final effector cell to target tumor cell ratio of 40:1. After a 4 h coincubation (37 °C, 5% CO2), cells were stained with Sytox Blue dead cell stain (Invitrogen) and analyzed using an Attune NxT flow cytometer (Thermo Fisher Scientific, Waltham, MA, USA) and FlowJo software (Tree Star, Inc., Ashland, OR, USA). Cells that were positive for both CFSE and Sytox Blue were defined as dead K562 cells. PBMCs alone and CFSE-labeled K562 cells alone were also treated with the compounds at the same concentrations and stained with Sytox Blue to exclude any direct cytotoxicity of the compounds towards the PBMCs and cancer cells.
4.9 Cytokine release from peripheral blood mononuclear cells […]

CCOC(=O)CC[C@@H](NC(=O)[C@@H](NC(=O)CNC(=O)/C=C/c1ccc(OC(=O)CC23CC4CC(CC(C4)C2)C3)c(OC)c1)C(C)C)C(=O)OCC [Compound 40]
LPS- and IFN-γ-induced cytotoxic activity of PBMCs against K562, costimulation (1 μM + LPS 1 μg/mL or IFN-γ 200 U/mL, 18 h, 40:1, 4 h): significantly enhanced | cytotoxic activity of PBMCs with costimuli, compared to 2 (1 μM + LPS or IFN-γ): slightly stronger activity | increase in the ratio of dead K562 cells (PBMCs stimulated 18 h with 1 μM compound alone, 40:1 effector to target ratio, 4 h coincubation, relative to vehicle): 1.28 fold | apoptosis in K562 cells in the absence of PBMCs (cotreatment with 40 and IFN-γ, data not shown): did not induce apoptosis
